Test results reported in BindingDB's records for doi:10.1021/jm000940u (Aventis Pharma, 2000).

How the values were obtained:
Prothrombin = Prothrombin (Homo sapiens, UniProt P00734); test: Enzyme Assay and Determination of the Inhibition Constants.; conditions: pH 7.5; 22 °C
Serine protease 1 = target: T1, Serine protease 1 (Bos taurus, UniProt P00760); test: as above; conditions: pH 7.5; 22 °C
T1 sequence (P00760 whole entry): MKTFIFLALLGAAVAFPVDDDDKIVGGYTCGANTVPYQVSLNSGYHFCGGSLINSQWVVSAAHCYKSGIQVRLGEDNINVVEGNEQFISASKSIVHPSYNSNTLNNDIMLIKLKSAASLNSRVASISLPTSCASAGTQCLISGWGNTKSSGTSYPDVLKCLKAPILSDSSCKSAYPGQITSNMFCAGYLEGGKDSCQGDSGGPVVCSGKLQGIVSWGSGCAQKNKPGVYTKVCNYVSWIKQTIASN

| Compound | Ki (Prothrombin) | Ki (Serine protease 1) |
| --- | --- | --- |
| N=C(N)c1ccc(O)c(CN2CC[C@H](NS(=O)(=O)c3cc4ncccc4s3)C2=O)c1 | > 4 µM | – |
| O=C1[C@@H](NS(=O)(=O)c2cc3ncccc3s2)CCN1Cc1cc2ccncc2[nH]1 [N-[(3S)-1-(4,7-diazabicyclo[4.3.0]nona-2,4,8,10-tetraen-8-ylmethyl)-2-oxo-pyrrolidin-3-yl]-7-thia-2-azabicyclo[4.3.0]nona-2,4,8,10-tetraene-8-sulfonamide] | > 4 µM | > 2.9 µM |
| Nc1nccc2ccc(CN3CC[C@H](NS(=O)(=O)c4cc5ncccc5s4)C3=O)cc12 [N-[(3S)-1-[(1-aminoisoquinolin-7-yl)methyl]-2-oxopyrrolidin-3-yl]thieno[3,2-b]pyridine-2-sulfonamide] | > 4 µM | > 2.9 µM |
